How the values were obtained:
[1] = test system: alkaline phosphatase; conditions: for Activity alkaline phosphatase after freeze-drying and 6 days at 0% RH and 60° C.: alkaline phosphatase to stabilizer 1 to 9, average of 4 independent experiments; for Activity alkaline phosphatase directly after freeze drying: alkaline phosphatase to stabilizer 1 to 9 by weight, average of 2 independent experiments
[2] = Storage of sugar glasses at 20° C. at raised relative air humidity (deliquescence); type: physicochemical; conditions: 45% relative air humidity
Source text: In practice, a sugar glass will never be completely anhydrous. This is for instance the consequence of uptake of water from the air. […] The extent of water uptake depends on the hygroscopicity of the material and of the relative degree of air humidity.

[3] = Freeze-drying at a sample temperature of −16° C. (cake formation); type: physicochemical; conditions: sample temperature −16° C.
Method: This last was tested in experiments with trehalose and inulin. Freeze-drying was done at a sample temperature of −16° C. […] Accordingly, inulin can be freeze-dried under less stringent conditions.

[4] = from scientific publications; cited from earlier work

## O=C[C@H](O)[C@@H](O)[C@H](O)[C@H](O)CO [Glucose]
[1]
  Activity alkaline phosphatase after freeze-drying and 6 days at 0% RH and 60° C.: 0.8 ± 4.5%
  Activity alkaline phosphatase directly after freeze drying: 110.3 ± 10.6%
[1]; freeze-dried samples, 4 weeks, 45% RH, 20° C.
  Activity of the protein after 4 weeks at 45% RH (in words): substantial decrease of the activity
[1]; freeze-dried samples, 4 weeks, 45% RH, 20° C., FIG. II
  Activity of alkaline phosphatase after 4 weeks at 45% RH: 57.9±3.1%
[1]; freeze-dried samples, 4 weeks, 60% RH, 20° C.
  Activity of the protein after 4 weeks at 60% RH (in words): substantial decrease of the activity
[1]; freeze-dried samples, 4 weeks, 60% RH, 20° C., FIG. III
  Activity of alkaline phosphatase after four weeks at 60% RH: 46.3±16.1%
[1]; freeze-dried samples
  Activity of the protein after 6 days of storage at 0% RH and 60° C. (in words): gone completely

## OC[C@H]1O[C@H](O[C@H]2O[C@H](CO)[C@@H](O)[C@H](O)[C@H]2O)[C@H](O)[C@@H](O)[C@@H]1O [Trehalose]
[2]
  Behaviour of glass exposed to relative air humidity of 45%: first deliquesced (that is, the Tg falls below 20° C.) and then crystallized
[3]
  Cake obtained on freeze-drying: collapsed cake
[1]
  Activity alkaline phosphatase after freeze-drying and 6 days at 0% RH and 60° C.: −1.4 ± 2.8%
  Activity alkaline phosphatase directly after freeze drying: 95.9 ± 11.5%
[1]; freeze-dried samples
  Activity of the protein after 6 days of storage at 0% RH and 60° C. (in words): gone completely
[4]
  Tg (glass transition temperature): ~120 °C

Source: patent publication US6841169B2, “Stabilizer for pharmacons” (Rijksuniversiteit Groningen, priority 2001, dated 2005)
